Results on eight compounds are retold here after PubChem BioAssay (NCI).

Test systems include SNB-19 CNS; MDA-MB-435; K-562 leukemia; MALME-3M melanoma; SF-268 CNS; SN12C renal; OVCAR-8 ovarian; OVCAR-5 ovarian; UACC-257 melanoma; HT29 colon.
Assay in all cases: NCI anticancer screen, dose series, 48 h

Structures are written as SMILES. “And” between values parts separate entries of the source, which are not always exact repeats. Identical values can stand only once.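 Where inhibition never reached the appropriate level, the endpoint shown equals the highest concentration tested. Otherwise, values were interpolated linearly from a five-concentration, 48-hour dose response in 96-well plates. GI50 is the concentration that inhibits growth by half. TGI denotes the concentration required for complete inhibition of growth.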 Where only a bound is given, the exact number is not on record here.

Regarding `CC(=O)OC1CCC2(C)C(CCC3C4CC=C(C(C)=O)C4(C)OC(=O)CC32)C1` (stereo unspecified), the GI50 in the test with SNB-19 CNS is 13.3 µM; in the test on MDA-MB-435 it was 1.71 µM; in the test with K-562 leukemia, 3.35 µM; with MALME-3M melanoma it was 1.61 µM; in the test with SF-268 CNS, 5.2 µM; in the test with SN12C renal it was 3.26 µM. In addition, the GI50 is 2.13 µM in the test on OVCAR-8 ovarian, 2.75 µM with OVCAR-5 ovarian, 1.42 µM with UACC-257 melanoma and 1.6 µM with HT29 colon. The TGI with SNB-19 CNS was determined as 27.9 µM; in the test with MDA-MB-435 it was 4.66 µM; in the test on K-562 leukemia, 10.3 µM; in the test with MALME-3M melanoma, 3.67 µM; in the test on SF-268 CNS, 17.8 µM; in the test with SN12C renal, 13.6 µM. In addition, the TGI is 7.49 µM in the test with OVCAR-8 ovarian, 7.63 µM in the test with OVCAR-5 ovarian, 2.98 µM in the test on UACC-257 melanoma and 3.09 µM in the test on HT29 colon.
On to `COc1cc2ccnc3c2c(c1OC)-c1ccc(=O)ccc1-3`, for which the GI50 in the test with SNB-19 CNS is 55.3 µM; in the test on MDA-MB-435, 31.5 µM; in the test with K-562 leukemia, 14.5 µM; with MALME-3M melanoma, 37.9 µM; in the test on SF-268 CNS, 39.1 µM; in the test with SN12C renal it was 31 µM. In addition, the GI50 in the test with OVCAR-8 ovarian was 13.4 µM; in the test on OVCAR-5 ovarian, 51.7 µM; in the test with UACC-257 melanoma, 25.4 µM; in the test with HT29 colon, 14.8 µM. Also, the TGI was over 100 µM in the test with SNB-19 CNS; 90.6 µM in the test on MDA-MB-435; 35.5 µM in the test with K-562 leukemia; 75.5 µM in the test with MALME-3M melanoma; over 100 µM in the test on SF-268 CNS; over 100 µM in the test with SN12C renal. In addition, the TGI was 58.8 µM in the test with OVCAR-8 ovarian, over 100 µM with OVCAR-5 ovarian, 63.5 µM in the test with UACC-257 melanoma and 68.9 µM in the test with HT29 colon.
For the compound `CCN(C(=O)CCl)C(C)(C)C(SSSC(c1ccc(Cl)cc1)C(C)(C)N(CC)C(=O)CCl)c1ccc(Cl)cc1` (stereo unspecified), the GI50 with SNB-19 CNS was 13.9 µM; in the test on MDA-MB-435, 2.14 µM; with K-562 leukemia, 1.71 µM; in the test on MALME-3M melanoma, 2.21 µM; with SF-268 CNS it was 10.5 µM; in the test on SN12C renal, 12.5 µM. Moreover, the GI50 with OVCAR-8 ovarian was 10.9 µM; in the test on OVCAR-5 ovarian, 13.8 µM; in the test on UACC-257 melanoma, 1.82 µM; in the test with HT29 colon it was 2.65 µM. Moreover, the TGI in the test with SNB-19 CNS came to 30.3 µM; with MDA-MB-435 it was 5.49 µM; in the test on K-562 leukemia, 3.59 µM; in the test on MALME-3M melanoma it was 3.97 µM; in the test with SF-268 CNS it was 23.9 µM; in the test on SN12C renal, 26.4 µM. Also, the TGI was 24.1 µM in the test with OVCAR-8 ovarian, 27.9 µM in the test with OVCAR-5 ovarian, 3.48 µM with UACC-257 melanoma and 8.23 µM in the test with HT29 colon.
Consider `COc1ccc(/C=C/C(=O)c2ccc3cc(OC)c(OC)cc3c2)cc1OC`, for which the GI50 is 5.29 µM with SNB-19 CNS; 3.06 µM with MDA-MB-435; 3.02 µM with K-562 leukemia; 13.6 µM in the test with MALME-3M melanoma; 4.45 µM in the test on SF-268 CNS; 3.41 µM with SN12C renal. Further, the GI50 with OVCAR-8 ovarian is 2.56 µM; in the test on OVCAR-5 ovarian, 4.81 µM; in the test with UACC-257 melanoma, 6.14 µM; in the test on HT29 colon, 2.97 µM. The TGI with SNB-19 CNS was 29.8 µM; with MDA-MB-435, 18.1 µM; with K-562 leukemia, over 100 µM; in the test on MALME-3M melanoma it was 30.2 µM; in the test with SF-268 CNS, 22.6 µM; in the test on SN12C renal, 31.2 µM. In addition, the TGI was 7.89 µM in the test on OVCAR-8 ovarian, over 100 µM in the test on OVCAR-5 ovarian, 22.6 µM in the test with UACC-257 melanoma and 9.47 µM in the test with HT29 colon.
As for `COc1ccc2[nH]c(=O)c(/C=C/C(=O)/C=C/c3ccc(O)c(OC)c3)cc2c1`, the GI50 is 1.67 µM in the test with SNB-19 CNS; 0.301 µM with MDA-MB-435; 1.35 µM in the test with K-562 leukemia; 2.16 µM with MALME-3M melanoma; 2.25 µM in the test with SF-268 CNS; 1.89 µM in the test with SN12C renal. The GI50 was 1.52 µM with OVCAR-8 ovarian, 1.88 µM in the test on OVCAR-5 ovarian, 1.58 µM with UACC-257 melanoma and 0.777 µM in the test on HT29 colon. Moreover, the TGI is 3.92 µM in the test on SNB-19 CNS; 1.3 µM in the test on MDA-MB-435; over 100 µM in the test with K-562 leukemia; 5.28 µM in the test on MALME-3M melanoma; 7.14 µM in the test with SF-268 CNS; 4.49 µM in the test on SN12C renal. For the same compound, the TGI with OVCAR-8 ovarian turned out to be 11.5 µM; in the test with OVCAR-5 ovarian it was 3.66 µM; in the test on UACC-257 melanoma it was 3.09 µM; in the test with HT29 colon, 2.12 µM.
Take `C/C(=N\NC(=O)c1ccccc1O)c1cccc(/C(C)=N/NC(=O)c2ccccc2O)n1`: the TGI was 74.2 µM and > 100 µM in the test with SNB-19 CNS; over 100 µM in the test on MDA-MB-435; over 100 µM in the test on K-562 leukemia; 43.9 µM and > 100 µM with MALME-3M melanoma; 56.5 µM and > 100 µM with SF-268 CNS; over 100 µM with SN12C renal. The TGI was 51.6 µM and > 100 µM in the test with OVCAR-8 ovarian; 49.5 µM and > 100 µM with OVCAR-5 ovarian; over 100 µM in the test on UACC-257 melanoma; over 100 µM in the test on HT29 colon. Further, the GI50 in the test with MDA-MB-435 was 0.767 µM; in the test with MALME-3M melanoma it was 0.522 µM; with SF-268 CNS, 0.28 µM; with SN12C renal, 0.731 µM; with OVCAR-8 ovarian, 0.571 µM; in the test with OVCAR-5 ovarian it was 10.8 µM and > 95.7 µM. In addition, the GI50 with UACC-257 melanoma was 16.5 µM and > 100 µM.
As for `Nc1ncnc2c(C3OC(CO)C(O)C3O)[nH]nc12` (stereo unspecified), the GI50 is 0.138 µM in the test on SNB-19 CNS; 0.356 µM in the test with MDA-MB-435; 0.0459 µM in the test with K-562 leukemia; 0.519 µM with MALME-3M melanoma; 0.204 µM and 0.452 µM in the test with SF-268 CNS; 0.161 µM in the test on SN12C renal. In addition, the GI50 with OVCAR-8 ovarian is 0.0375 µM and 0.0527 µM; with OVCAR-5 ovarian it was 0.0727 µM; in the test with UACC-257 melanoma, 1.45 µM and 2.1 µM. Moreover, the TGI is 3.68 µM and 24.8 µM in the test on SNB-19 CNS; 8.42 µM in the test with MDA-MB-435; 2.03 µM in the test on K-562 leukemia; 5.33 µM and 2.75 µM in the test on MALME-3M melanoma; 14 µM and 35.9 µM in the test with SF-268 CNS; 1.68 µM and 1.09 µM in the test with SN12C renal. The TGI in the test with OVCAR-8 ovarian is 0.624 µM and 0.713 µM; with OVCAR-5 ovarian it was 3.58 µM and 8.57 µM; in the test with UACC-257 melanoma, 10.2 µM and 26.6 µM; in the test on HT29 colon it was 10.5 µM and 4.62 µM.
Regarding `S=C=NCc1ccccc1`, the TGI in the test on SNB-19 CNS was 13.1 µM; in the test on MDA-MB-435 it was 8.33 µM; with K-562 leukemia, over 19.9 µM; in the test on MALME-3M melanoma, 19.6 µM; in the test with SF-268 CNS, 13.5 µM; in the test on SN12C renal, over 36.8 µM. Also, the TGI with OVCAR-8 ovarian was 9.31 µM; with OVCAR-5 ovarian, 29.8 µM; in the test with UACC-257 melanoma, 15.2 µM; in the test with HT29 colon it was over 31.3 µM.
